Results published in patent EP3502109A1, “TRIAZOLE-PHENYL-THIAZOLE HETEROCYCLES AS INNOVATIVE INHIBITORS OF TRYPANOTHIONE REDUCTASE AND THEIR USE AS LEISHMANICIDES” (Consejo Superior De Investigaciones Científicas, priority 2017, dated 2019).
Where a name gives a salt, the structure may show the parent alone. Read-outs that look alike come from different tables or passages of the source.

How the values were obtained:
[1] = tested on: HepG2 cells; experiment: Cytotoxicity assay, HepG2 (crystal violet); type: cell-based; conditions: Homo sapiens, HepG2, 24 h
Method: (§1) Human THP-1 monocytic cells were seeded at 1.2 x 10^5 cells/ml in 24-multidish plates (Nunc, Roskilde, Denmark) and differentiated to macrophages for 24 h in 1 ml of RPMI 1640 medium containing 10 ng/ml of phorbol 12-myristate 13-acetate (PMA) (Sigma-Aldrich, St. Louis, MO). Human HepG2 cells were seeded at 8 x 10^5 cells/ml in 24-multidish plates (Nunc, Roskilde, Denmark). After 24 h of drug treatment, both cell lines were washed with PBS and stained with violet crystal solution (0.2% in 2% ethanol) in for 10 min. at room temperature. After dye removal, cells were washed twice with water. Once dried, the wells were treated with 1% SDS for 30 min and the absorbance at 570nm was monitored in a plate reader. Table 2. EC50± SEM values for the compounds of formula I-A and I-B on L. infantum promastigotes, extracellular and intracellular amastigotes and cytotoxic activity in macrophage-differentiated THP-1 monocytes and HepG2 cell lines

[2] = target: recombinant Li-TryR (Leishmania infantum, UniProt A4HSF7); experiment: Li-TryR oxidoreductase activity assay; type: biochemical
Method: Oxidoreductase activity was determined according to the method described by Hamilton et al. (Biochem. J., 2003, 369, 529-537). Briefly, reactions were carried out at 26 °C (250 µL) of HEPES pH 8.0 (40 mM) buffer containing EDTA (1 mM), NADPH (150 µM), NADP+ (30 µM), DTNB (25 µM), T[S]2 (1 µM), glicerol (0.02%), DMSO (1.5%) and recombinant Li-TryR (7 nM). […] Enzyme activity was monitored by the increase in absorbance at 412 nm for 1 h at 26 °C in a VERSAmax microplate reader (Molecular Devices, California, USA). All the assays were conducted in triplicate in at least three independent experiments. Data were analyzed using a non-linear regression model with the Grafit6 software (Erithacus, Horley, Surrey, UK).

[3] = target: Li-TryR dimeric form (Leishmania infantum, UniProt A4HSF7); experiment: Dimer quantitation assay (ELISA), Li-TryR monomer displacement; type: binding
Method: The stability of the Li-TryR dimeric form in the presence of the compounds was evaluated using an Enzyme-Linked ImmunoSorbent Assay (ELISA). Briefly a dual (HIS/FLAG) tagged Li-TryR (400 nM) was incubated in a dimerization buffer (200 µL 300 mM NaCl, 50 mM Tris pH 8.0) for 16 h at 37 °C with agitation and in a humid atmosphere in the presence of different peptide concentration (10 to 90 µM) in 1.5ml tubes. Next, the tubes were centrifuged at 30000 rcf and supernatants were disposed in anti-flag coated 96 well plates and incubated 30 min, at 37°C with gentle shaking. Then the plates were washed ten times with TTBS (Tween 0.1%, 2 mM Tris, 138 mM NaCl 138 pH 7.6) and incubated with diluted monoclonal α-HIS HRP conjugated antibody (200 µL, Abcam, Cambridge, UK) in BSA (5%) in TTBS for 1 h at room temperature. The plates were washed once again as previously described and 1,2-phenylenediamine dihydrochloride (OPD) substrate (100 µL, Dako, Glostrup, Denmark) prepared according to manufacturer's instructions was added. The enzymatic reaction was stopped after 10 min with H2SO4 (100 µL, 0.5 M) and the absorbances were measured at 490 nm in a VERSAmax microplate reader (Molecular Devices, California, USA). All the assays were conducted in triplicate in at least three independent experiments. Data were analyzed using a non-linear regression model with the Grafit6 software (Erithacus, Horley, Surrey, UK). Table 1. IC50 ± SEM values for target compounds of formula I-A and I-B in the oxidoreductase activity assays and in the Li-TryR monomer displacement

[4] = tested on: L. infantum promastigotes; experiment: Leishmanicidal activity on promastigotes (PI exclusion, flow cytometry); type: cell-based; conditions: Leishmania infantum, 24 h
Method: L. infantum promastigotes (MCAN/ES/ 89/IPZ229/1/89) were grown in RPMI-1640 medium (Sigma-Aldrich, St. Louis, MO, USA) supplemented with 10% heat-inactivated fetal calf serum (FCS), antibiotics, and 25 mm HEPES (pH 7.2) at 26 °C.
(§2) Drug treatment of amastigotes was performed during the logarithmic growth phase at a concentration of 1×10^6 parasites/mL at 37 °C for 24 h. Drug treatment of promastigotes was performed during the logarithmic growth phase at a concentration of 2×10^6 parasites/mL at 26 °C for 24 h. The percentage of living cells was evaluated by flow cytometry by the propidium iodide (PI) exclusion method.^17 Drug concentrations ranged from 0.2 µM to 25 µM.

[5] = tested on: L. infantum axenic amastigotes; experiment: Leishmanicidal activity on axenic amastigotes (PI exclusion, flow cytometry); type: cell-based; conditions: Leishmania infantum, 24 h
Method: L. infantum axenic amastigotes were grown in M199 (Invitrogen, Leiden, The Netherlands) medium supplemented with 10% heat inactivated FCS, 1 g/L β-alanine, 100 mg/L L-asparagine, 200 mg/L sacarose, 50 mg/L sodium pyruvate, 320 mg/L malic acid, 40 mg/L fumaric acid, 70 mg/L succinic acid, 200 mg/L α-ketoglutaric acid, 300 mg/L citric acid, 1.1 g/L sodium bicarbonate, 5 g/L MES, 0.4 mg/L hemin, 10 mg/L gentamicine pH 5.4 at 37 °C. THP-1 cells were grown in RPMI-1640 medium (Gibco, Leiden, The Netherlands) supplemented with 10% heat inactivated FCS, antibiotics, 1 mM HEPES, 2 mM glutamine and 1 mM sodium pyruvate, pH 7.2 at 37 °C and 5% CO2.
as §2

[6] = tested on: macrophage-differentiated THP-1 monocytes; experiment: Cytotoxicity assay, macrophage-differentiated THP-1 (crystal violet); type: cell-based; conditions: Homo sapiens, THP-1, 24 h; read-out: EC50 (µM) THP-1 dif
Method: as §1

Sequence of Li-TryR dimeric form (A4HSF7 entry or part of it): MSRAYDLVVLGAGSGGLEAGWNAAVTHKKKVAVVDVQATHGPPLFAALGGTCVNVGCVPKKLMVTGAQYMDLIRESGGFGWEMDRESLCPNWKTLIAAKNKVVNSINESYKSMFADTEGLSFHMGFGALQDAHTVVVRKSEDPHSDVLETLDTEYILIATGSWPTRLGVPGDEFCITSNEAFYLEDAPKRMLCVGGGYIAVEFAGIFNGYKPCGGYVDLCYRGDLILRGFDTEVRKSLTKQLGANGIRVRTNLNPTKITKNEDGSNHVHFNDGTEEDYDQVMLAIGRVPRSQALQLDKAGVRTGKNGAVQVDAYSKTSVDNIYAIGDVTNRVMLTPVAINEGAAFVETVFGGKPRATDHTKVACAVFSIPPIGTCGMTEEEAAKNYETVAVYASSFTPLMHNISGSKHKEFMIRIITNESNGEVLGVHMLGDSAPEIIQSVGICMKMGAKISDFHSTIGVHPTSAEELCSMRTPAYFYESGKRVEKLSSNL
Sequence of recombinant Li-TryR (A4HSF7 entry or part of it): as above

Row | SMILES | IC50 ([2]; read-out: IC50 act) [µM] | IC50 ([3]; read-out: IC50 dim) [µM] | further results
1 | C[n+]1nn(-c2ccc(-c3nc(CCc4ccc5ccccc5c4)cs3)c(OCCN3CCNC3=O)c2)cc1CCCCN [Compound 10c, 4-(4-Ammoniobutyl)-3-methyl-1-(4-(4-(2-(naphthalen-2-yl)ethyl)thiazol-2-yl)-3-(2-(2-oxoimidazolidin-1-yl)ethoxy)phenyl)-1H-1,2,3-triazol-3-ium 2,2,2-trifluoroacetate trifluoromethanesulfonate] | – | – | EC50 [1]: ≥ 75 µM; IC50 [2]: 2.67 ± 0.13 µM; IC50 [3]: 82.7 ± 2.4 µM; EC50 [4]: 17.9 ± 3.76 µM; EC50 [5]: 12.9 ± 0.51 µM; EC50 [6]: ≥ 75 µM
2 | NCCCCc1cn(-c2ccc(-c3nc(CCc4ccccc4)cs3)c(OCCC3CCNCC3)c2)nn1 [Compound 8l, 4-(1-(4-(4-phenethylthiazol-2-yl)-3-(2-(piperidin-4-yl)ethoxy)phenyl)-1H-1,2,3-triazol-4-yl)butan-1-amine 2,2,2 trifluoroacetate] | 5.78 ± 0.89 | > 75 | –
3 | NCCCc1cn(-c2ccc(-c3nc(CCc4ccccc4)cs3)c(OCCN3CCNC3=O)c2)nn1 [Compound 8n, 1-(2-(5-(4-(3-aminopropyl)-1H-1,2,3-triazol-1-yl)-2-(4-phenethylthiazol-2-yl)phenoxy)ethyl)imidazolidin-2-one 2,2,2 trifluoroacetate] | 41.2 ± 8.48 | > 75 | –
4 | C[n+]1nn(-c2ccc(-c3nc(CCc4ccccc4)cs3)c(OCCN3CCNC3=O)c2)cc1CCCCN [Compound 10b, 4-(4-Ammoniobutyl)-3-methyl-1-(3-(2-(2-oxoimidazolidin-1-yl)ethoxy)-4-(4-phenethylthiazol-2-yl)phenyl)-1H-1,2,3-triazol-3-ium 2,2,2-trifluoroacetate trifluoromethanesulfonate] | 12.9 ± 0.98 | > 75 | –
5 | NCCCCc1cn(-c2ccc(-c3nc(-c4ccccc4)c(-c4ccccc4)s3)c(OCCN3CCNC3=O)c2)nn1 [Compound 8p, 1-(2-(5-(4-(4-Aminobutyl)-1H-1,2,3-triazol-1-yl)-2-(4,5-diphenylthiazol-2-yl)phenoxy)ethyl)imidazolidin-2-one 2,2,2 trifluoroacetate] | 6.07 ± 1.01 | 4.15 ± 1.92 | –
6 | C[n+]1nn(-c2ccc(-c3nc(CCc4ccccc4)cs3)c(OCCC3CCNCC3)c2)cc1CCCCN [Compound 10k, Mono (4-(2-(5-(4-(4-ammoniobutyl)-3-methyl-1H-1,2,3-triazol-3-ium-1-yl)-2-(4-phenethylthiazol-2-yl)phenoxy)ethyl)piperidin-1-ium) mono(2,2,2-trifluoroacetate) mono(trifluoromethanesulfonate)] | 3.35 ± 0.3 | > 75 | –
7 | C[n+]1nn(-c2ccc(-c3nc(CCc4ccc(-c5ccccc5)cc4)cs3)c(OCCN3CCNC3=O)c2)cc1CCCN [Compound 10j, 1-(4-(4-(2-([1,1'-Biphenyl]-4-yl)ethyl)thiazol-2-yl)-3-(2-(2-oxoimidazolidin-1-yl)ethoxy)phenyl)-4-(3-ammoniopropyl)-3-methyl-1H-1,2,3-triazol-3-ium 2,2,2-trifluoroacetate trifluoromethanesulfonate] | 6.99 ± 0.59 | 30.2 ± 3.47 | –
8 | CC(C)Oc1csc(-c2ccc(-n3cc(CCCCN)nn3)cc2OCCN2CCNC2=O)n1 [Compound 8a, 1-(2-(5-(4-(4-Aminobutyl)-1H-1,2,3-triazol-1-yl)-2-(4-isopropoxythiazol-2-yl)phenoxy)ethyl)imidazolidin-2-one 2,2,2 trifluoroacetate] | 50.2 ± 2.37 | > 75 | –
9 | C[n+]1nn(-c2ccc(-c3nc(CCc4ccc5c(c4)CCO5)cs3)c(OCCN3CCNC3=O)c2)cc1CCCCN [Compound 10d, 4-(4-Ammoniobutyl)-1-(4-(4-(2-(2,3-dihydrobenzofuran-5-yl)ethyl)thiazol-2-yl)-3-(2-(2-oxoimidazolidin-1-yl)ethoxy)phenyl)-3-methyl-1H-1,2,3-triazol-3-ium 2,2,2-trifluoroacetate trifluoromethanesulfonate] | – | – | EC50 [1]: ≥ 75 µM; IC50 [2]: 5.42 ± 0.23 µM; IC50 [3]: > 75 µM; EC50 [4]: 47 ± 2.08 µM; EC50 [5]: ≥ 75 µM; EC50 [6]: ≥ 75 µM
10 | NCCCc1cn(-c2ccc(-c3nc(CCc4ccc(-c5ccccc5)cc4)cs3)c(OCCN3CCNC3=O)c2)nn1 [Compound 8o, 1-(2-(2-(4-(2-([1,1'-Biphenyl]-4-yl)ethyl)thiazol-2-yl)-5-(4-(3-aminopropyl)-1H-1,2,3-triazol-1-yl)phenoxy)ethyl)imidazolidin-2-one 2,2,2 trifluoroacetate] | 21.8 ± 5.49 | 11.1 ± 0.44 | –
11 | C[n+]1nn(-c2ccc(-c3nc(-c4ccccc4)cs3)c(OCCN3CCNC3=O)c2)cc1CCCCN [Compound 10a, 4-(4-Ammoniobutyl)-3-methyl-1-(3-(2-(2-oxoimidazolidin-1-yl)ethoxy)-4-(4-phenylthiazol-2-yl)phenyl)-1H-1,2,3-triazol-3-ium 2,2,2-trifluoroacetate trifluoromethanesulfonate] | 22.8 ± 0.98 | > 75 | –
12 | C[n+]1nn(-c2ccc(-c3nc(CCc4ccccc4)cs3)c(OCCN3CCNC3=O)c2)cc1CCCN [Compound 10i, 4-(3-Ammoniopropyl)-3-methyl-1-(3-(2-(2-oxoimidazolidin-1-yl)ethoxy)-4-(4-phenethylthiazol-2-yl)phenyl)-1H-1,2,3-triazol-3-ium 2,2,2-trifluoroacetate trifluoromethanesulfonate] | 21.5 ± 2.87 | > 75 | –
13 | NCCCCc1cn(-c2ccc(-c3nc(-c4ccccc4)cs3)c(OCCN3CCNC3=O)c2)nn1 [Compound 8c, 1-(2-(5-(4-(4-aminobutyl)-1H-1,2,3-triazol-1-yl)-2-(4-phenylthiazol-2-yl)phenoxy)ethyl)imidazolidin-2-one 2,2,2 trifluoroacetate] | 24 ± 1.69 | 29 ± 1.51 | –
14 | C[n+]1nn(-c2ccc(-c3nc(-c4ccccc4)c(-c4ccccc4)s3)c(OCCN3CCNC3=O)c2)cc1CCCCN [Compound 10l, 4-(4-Ammoniobutyl)-1-(4-(4,5-diphenylthiazol-2-yl)-3-(2-(2-oxoimidazolidin-1-yl)ethoxy)phenyl)-3-methyl-1H-1,2,3-triazol-3-ium 2,2,2-trifluoroacetate trifluoromethanesulfonate] | 9.31 ± 0.92 | > 75 | –
15 | COc1cc(-n2cc(CCCCN)nn2)ccc1-c1nc(CCc2ccccc2)cs1 [Compound 8m, 4-(1-(3-Methoxy-4-(4-phenethylthiazol-2-yl)phenyl)-1H-1,2,3-triazol-4-yl)butan-1-amine 2,2,2 trifluoroacetate] | – | – | IC50 [2]: 17.5 ± 2.91 µM; IC50 [3]: 89.2 ± 29.6 µM; EC50 [4]: 9.56 ± 0.44 µM; EC50 [5]: 7.1 ± 0.9 µM
